In patent US11434203B2, “8-hydroxyquinoline derivatives as diagnostic and therapeutic agents” (The General Hospital Corporation, priority 2015, dated 2022):
Like-named read-outs stand apart in the source and are kept apart here.

Tests used:
[1] = biological target: T1, soluble Aβ oligomers (Human A 1-42) (Homo sapiens, UniProt P05067); assay: Aβ aggregation assay (bis-ANS): reversal of aggregation of soluble Aβ oligomers; assay type: biochemical
T1 construct: Human A 1-42 (China Peptide); purchased China Peptide
T1 sequence (P05067 672-713): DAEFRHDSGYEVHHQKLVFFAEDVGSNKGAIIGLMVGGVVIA
From the text: 4,4(′)-dianilino-1,1(′)-binaphthyl-5,5(′)-disulfonate (bis-ANS, Sigma) was used to assess whether compounds could reverse the aggregation of soluble A oligomers. (See, e.g., LeVine, H., 3rd, (2002) 4,4(′)-Dianilino-1,1(′)-binaphthyl-5,5(′)-disulfonate: report on non-beta-sheet conformers of Alzheimer's peptide beta(1-40), Arch Biochem Biophys 404, 106; Chen, W. T. et al., (2011) Distinct effects of Zn^2+, Cu^2+, Fe^3+, and Al^3+ on amyloid-beta stability, oligomerization, and aggregation: amyloid-beta destabilization promotes annular protofibril formation, J Biol Chem 286, 9646) Human A 1-42 (China Peptide) was dissolved in DMSO (Sigma) to a stock concentration of 1.5 mM. A ([…]) oligomers were induced with ZnSO4 (15 μM) at 26° C. for 30 min in a buffer (pH 7.4) containing Tris (50 mM), NaCl (150 mM) and bis-ANS (10 μM). Compounds (0.1 to 120 μM) dissolved in DMSO (Sigma) were added for 30 min. CQ and PBT2 were used as positive controls. Endpoint fluorescence (excitation=390 nm, emission=490 nm) was measured with a Flex Station (Molecular Devices) fluorescent plate reader. At each concentration, Aβ fluorescence was normalized to background fluorescence and then expressed as a percentage of vehicle treated control samples. […] Data represents the mean of at least 9 replicates from 3 experiments.

AD patients = settings: pilot phase II clinical trial, cited from earlier work
SH-SY5Y cells = assay: Ionophore assay: cellular metal levels by ICP-MS; assay type: cell-based; settings: 20 μM, 6 hours; for Cu uptake compared to 8HQ: FIG. 1; for Cu uptake, fold increase than that of PBT2: FIG. 3
Procedure: Cells were maintained at 37° C. with 5% CO2 and passaged every 3-4 days. Compounds (10 mM) were solubilized in DMSO (Sigma). CQ and PBT2 were used as positive controls. Cells were treated with growth media supplemented with each compound ([…]) or vehicle for 6 hours. Cells were harvested and metal levels were measured with Inductively-Coupled Plasma Mass Spectrometry (Varian), as previously described. […] Data represents the mean and S.E.M. of at least 9 replicates from 3 experiments. A oneway ANVOA with Fisher's LSD test was used to determine statistical differences relative to control (Prism 6, Graphpad).
Dashed line indicates control level. SH-SY5Y cells treated were treated with each compound (20 μM) for 6 hours and cellular metal levels were measured with ICP-MS.
(§1) SH-SY5Y cells treated were treated with each compound (20 μM) for 6 hours and cellular metal levels were measured with ICP-MS. Dashed line indicates control level.
as §1

[2] = tested on: patients with Huntington's disease and patients with AD; settings: phase II clinical trials; cited from earlier work
[3] = Aβ oligomers induced with ZnSO4 (15 μM), bis-ANS fluorescence, compounds 0.1 to 120 μM for 30 min, pH 7.4, read-out: EC50 (μM), reversal of aggregation of soluble Aβ oligomers

SMILES | EC50 [1, 3] [µM] | other results
Oc1c(I)cc(Cl)c2cccnc12 [Clioquinol (CQ), 5-chloro-7-iodo-quinolin-8-ol] | 1.8 | rate of cognitive decline (AD patients; AD patients): attenuated; tolerability (AD patients): well tolerated
Oc1cccc2ccc(F)nc12 [Compound 5] | – | EC50 [1]: > 120 µM; Cu uptake compared to 8HQ (SH-SY5Y cells): inferior to 8HQ
Oc1cccc2cc(F)cnc12 [Compound 6] | – | Cu uptake compared to 8HQ (SH-SY5Y cells): inferior to 8HQ
Oc1ccccc1/N=C/c1ccc(F)cc1 [Compound 10] | 15.4 | –
Oc1c(F)cc(Cl)c2cccnc12 [Compound 12, 5-chloro-7-fluoro-8-hydroxyquinoline] | 4.9 | –
Oc1c(F)cc(Br)c2cccnc12 [Compound 13, 5-bromo-7-fluoro-8-hydroxyquinoline] | 3.5 | –
Oc1c(F)cc(I)c2cccnc12 [Compound 14, 7-fluoro-5-iodo-8-hydroxyquinoline] | 2.3 | –
Oc1c(Cl)cc(F)c2cccnc12 [Compound 15, 7-chloro-5-fluoro-8-hydroxyquinoline] | 5.2 | –
Oc1c(Br)cc(F)c2cccnc12 [Compound 16, 7-bromo-5-fluoro-8-hydroxyquinoline] | 3.7 | –
Oc1c(I)cc(F)c2cccnc12 [Compound 17, 5-fluoro-7-iodo-8-hydroxyquinoline] | 2.5 | –
Oc1c(Cl)cc(Cl)c2ccc(COCCF)nc12 [Compound 23, 5,7-dichloro-2-((2-fluoroethoxy)methyl)quinolin-8-ol] | 2.4 | –
Oc1c(Cl)cc(Cl)c2ccc(COCCCCF)nc12 [Compound 24, 5,7-dichloro-2-((4-fluorobutoxy)methyl)quinolin-8-ol] | 2 | –
CN(Cc1cn(CCF)nn1)Cc1ccc2c(Cl)cc(Cl)c(O)c2n1 [Compound 28, 5,7-dichloro-2-((((1-(2-fluoroethyl)-1H-1,2,3-triazol-4-yl)methyl)(methyl)amino)methyl)quinolin-8-ol] | 2.3 | Cu uptake, fold increase than that of PBT2 (SH-SY5Y cells): 10 fold
CN(Cc1cn(CCCF)nn1)Cc1ccc2c(Cl)cc(Cl)c(O)c2n1 [Compound 29, 5,7-dichloro-2-((((1-(3-fluoropropyl)-1H-1,2,3-triazol-4-yl)methyl)(methyl)amino)methyl)quinolin-8-ol] | 4.5 | Cu uptake, fold increase than that of PBT2 (SH-SY5Y cells): 16 fold
CN(Cc1cn(CCCCF)nn1)Cc1ccc2c(Cl)cc(Cl)c(O)c2n1 [Compound 30, 5,7-dichloro-2-((((1-(4-fluorobutyl)-1H-1,2,3-triazol-4-yl)methyl)(methyl)amino)methyl)quinolin-8-ol] | 2.8 | Cu uptake, fold increase than that of PBT2 (SH-SY5Y cells): 8 fold
CN(C)Cc1ccc2c(Cl)cc(Cl)c(O)c2n1 [PBT2, 5,7-Dichloro-2-((dimethylamino)methyl) 8-quinolinol, reference compound] | 2 | benefits in patients [2]: shown benefits
